Target: T1, B-Raf (V600E)-kinase (Homo sapiens, UniProt P15056, V600E)
T1 construct: purchased Upstate
Test: Kinase test B-Raf (V600E)
Format: biochemical
Details: 1 h incubation with kinase before start, 250 μM ATP, biotinylated MEK1 substrate
Description: Kinase Test B-Raf (V600E)
In a dilution series 10 μL/well of test substance solution are placed in a multiwell plate. The dilution series is selected so that generally a range of concentrations of 2 μM to 0.119 nM or 0.017 nM is covered. If necessary the initial concentration of 2 μM is changed to 50 μM, 10 μM, 0.4 μM or 0.2857 μM and further dilution is carried out accordingly. The final concentration of DMSO is 5%. 10 μL/well of the B-Raf (V600E)-kinase solution are pipetted in (containing 0.5 ng B-Raf (V600E)-kinase, e.g. from Upstate) in 20 mM tris-HCl pH 7.5, 0.1 mM EDTA, 0.1 mM EGTA, 0.286 mM sodium orthovanadate, 10% glycerol, 1 mg/mL bovine serum albumin, 1 mM dithiothreitol) and the mixture is incubated for 1 h at RT with shaking. The kinase reaction is started by the addition of 20 μL/well ATP solution [final concentration: 250 μM ATP, 30 mM tris-HCl pH 7.5, 0.02% Brij, 0.2 mM sodium orthovanadate, 10 mM magnesium acetate, 0.1 mM EGTA, phosphatase cocktail (Sigma, # P2850, dilution recommended by the manufacturer)] and 10 μL/well MEK1 solution [containing 50 ng biotinylated MEK1 (prepared from purified MEK1 according to standard procedure, e.g. with EZ-Link Sulpho-NHS-LC-Biotin reagent, Pierce, #21335)] and carried out for 60 min at RT with constant shaking. The reaction is stopped by the addition of 12 μL/well of a 100 mM EDTA solution and incubation is continued for a further 5 min. 55 μL/well of the reaction solution are transferred into a streptavidin-coated plate (e.g. Streptawell HighBond, Roche, #11989685001) and gently shaken for 1 h at RT in order to bind biotinylated MEK1 to the plate. After elimination of the liquid the plate is washed five times with 200 μL/well of 1×PBS and 100 μL/well solution of primary antibody plus europium-labelled secondary antibody [Anti Phospho-MEK (Ser217/221), Cell Signaling, #9121 and Eu-N1 labelled goat-anti-rabbit antibody, Perkin Elmer, # AD0105] is added, the primary antibody is diluted 1:2000 and the secondary antibody is diluted to 0.4-0.5 μg/mL in Delfia Assay Buffer (Perkin Elmer, #1244-111). After 1 h shaking at RT the solution is poured away and washed five times with 200 μL/well Delfia Wash Buffer (Perkin Elmer, #4010-0010/#1244-114). After the addition of 200 μL/well Enhancement Solution (Perkin Elmer, #4001-0010/#1244-105) the mixture is shaken for 10 min at RT and then measured in a Wallac Victor using the program “Delfia Time Resolved Fluorescence (Europium)”. IC50 values are obtained from these dosage-activity curves using a software program (GraphPadPrizm).

T1 sequence (P15056 whole entry V600E): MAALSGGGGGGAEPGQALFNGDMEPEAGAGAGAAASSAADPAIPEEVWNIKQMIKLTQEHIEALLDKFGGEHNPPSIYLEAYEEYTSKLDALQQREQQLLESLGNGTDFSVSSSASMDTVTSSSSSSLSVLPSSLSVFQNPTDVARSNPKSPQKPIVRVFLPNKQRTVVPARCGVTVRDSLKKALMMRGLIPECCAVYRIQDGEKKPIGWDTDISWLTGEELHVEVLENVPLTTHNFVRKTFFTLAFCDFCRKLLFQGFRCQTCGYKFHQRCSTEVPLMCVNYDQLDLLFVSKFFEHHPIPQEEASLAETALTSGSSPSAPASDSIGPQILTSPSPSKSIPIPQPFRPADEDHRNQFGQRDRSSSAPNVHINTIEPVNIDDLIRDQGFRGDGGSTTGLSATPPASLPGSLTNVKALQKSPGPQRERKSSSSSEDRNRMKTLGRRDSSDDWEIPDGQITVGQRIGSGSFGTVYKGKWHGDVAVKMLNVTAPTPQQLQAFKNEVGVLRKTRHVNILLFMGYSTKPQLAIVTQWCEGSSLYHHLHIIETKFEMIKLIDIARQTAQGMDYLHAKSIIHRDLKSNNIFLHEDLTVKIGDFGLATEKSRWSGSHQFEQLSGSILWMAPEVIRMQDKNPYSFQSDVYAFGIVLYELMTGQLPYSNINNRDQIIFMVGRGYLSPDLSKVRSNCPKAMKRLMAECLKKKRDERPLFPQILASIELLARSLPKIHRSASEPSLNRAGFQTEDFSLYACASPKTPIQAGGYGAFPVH

Row | SMILES | IC50
1 | CCCN1CCN(c2cncc(-c3cn(-c4cc(NC(=O)c5cc(C)n(C(C)C)n5)cnc4C)nn3)c2)CC1 [I-48] | 8 nM
2 | CCc1cc(C(=O)Nc2cnc(C)c(-n3cc(-c4cncc(N5CCN(C6CC6)CC5)c4)nn3)c2)nn1C(C)(C)C [I-26] | 55 nM
3 | CCN1CCN(c2cncc(-c3cn(-c4cc(NC(=O)c5cc(C(C)C)n(C(C)(C)C)n5)cnc4C)nn3)c2)CC1 [I-39] | 25 nM
4 | CCCc1cc(C(=O)Nc2cnc(C)c(-n3cc(-c4cncc(N5CCN(CCC)CC5)c4)nn3)c2)nn1C(C)(C)C [I-35] | 22 nM
5 | Cc1ncc(NC(=O)c2ccc(C(C)(C)C)o2)cc1-n1cc(-c2cncc(N3CCN(C(C)C)CC3)c2)nn1 [I-1] | 4 nM
6 | CCCc1cc(C(=O)Nc2cnc(C)c(-n3cc(-c4cncc(N5CCN(CC)CC5)c4)nn3)c2)nn1C(C)(C)C [I-33] | 16 nM
7 | CCCc1cc(C(=O)Nc2cnc(C)c(-n3cc(-c4cncc(N5CCN(C(C)C)CC5)c4)nn3)c2)nn1C(C)(C)C [I-34] | 23 nM
8 | COCCCN1CCN(c2cncc(-c3cn(-c4cc(NC(=O)c5ccc(C(C)(C)C)o5)cnc4C)nn3)c2)CC1 [I-6] | 5 nM
9 | Cc1ncc(NC(=O)c2cc(C)n(C(C)(C)C)n2)cc1-n1cc(-c2cncc(N3CCN(CCOC(C)C)CC3)c2)nn1 [I-25] | 16 nM
10 | CCOCCN1CCN(c2cncc(-c3cn(-c4cc(NC(=O)c5ccc(C(C)(C)C)o5)cnc4C)nn3)c2)CC1 [I-7] | 5 nM
11 | CCc1cc(C(=O)Nc2cnc(C)c(-n3cc(-c4cncc(N5CCN(C(C)C)CC5)c4)nn3)c2)nn1C(C)(C)C [I-27] | 12 nM
12 | Cc1ncc(NC(=O)c2cc(C)n(C(C)(C)C)n2)cc1-n1cc(-c2cncc(N3CCN(C4CC4)CC3)c2)nn1 [I-15] | 20 nM
13 | CCCN1CCN(c2cncc(-c3cn(-c4cc(NC(=O)c5cc(C6CC6)n(C(C)(C)C)n5)cnc4C)nn3)c2)CC1 [I-44] | 30 nM
14 | Cc1ncc(NC(=O)c2cc(C(C)C)n(C(C)(C)C)n2)cc1-n1cc(-c2cncc(N3CCN(C(C)C)CC3)c2)nn1 [I-38] | 29 nM
15 | Cc1ncc(NC(=O)c2ccc(C(C)(C)C)s2)cc1-n1cc(-c2cncc(N3CCN(C(C)C)CC3)c2)nn1 [I-13] | 5 nM
16 | Cc1ncc(NC(=O)c2cc(C)n(C(C)C)n2)cc1-n1cc(-c2cncc(N3CCN(C4CC4)CC3)c2)nn1 [I-49] | 22 nM
17 | Cc1ncc(NC(=O)c2cc(C)n(C(C)(C)C)n2)cc1-n1cc(-c2cncc(N3CCN(C)CC3)c2)nn1 [I-18] | 8 nM
18 | COCCCN1CCN(c2cncc(-c3cn(-c4cc(NC(=O)c5ccc(C(C)(C)C)s5)cnc4C)nn3)c2)CC1 [I-9] | 7 nM
19 | CCCc1cc(C(=O)Nc2cnc(C)c(-n3cc(-c4cncc(N5CCN(C)CC5)c4)nn3)c2)nn1C(C)(C)C [I-36] | 18 nM
20 | CCCN1CCN(c2cncc(-c3cn(-c4cc(NC(=O)c5cc(C)n(C(C)(C)C)n5)cnc4C)nn3)c2)CC1 [I-17] | 10 nM
21 | CCc1cc(C(=O)Nc2cnc(C)c(-n3cc(-c4cncc(N5CCN(CC)CC5)c4)nn3)c2)nn1C(C)(C)C [I-31] | 12 nM
22 | Cc1ncc(NC(=O)c2cc(C)n(C(C)(C)C)n2)cc1-n1cc(-c2cncc(N3CCN(C(C)(C)C)CC3)c2)nn1 [I-21] | 9 nM
23 | Cc1ncc(NC(=O)c2cc(C)n(C(C)C)n2)cc1-n1cc(-c2cncc(N3CCCN(C)CC3)c2)nn1 [I-50] | 5 nM
24 | CCCc1cc(C(=O)Nc2cnc(C)c(-n3cc(-c4cncc(N5CCN(C6CC6)CC5)c4)nn3)c2)nn1C(C)(C)C [I-32] | 71 nM

The remaining lines, values ahead:

Row | IC50 | SMILES
25 | 19 nM | Cc1ncc(NC(=O)c2cc(C)n(C(C)(C)C)n2)cc1-n1cc(-c2cncc(N3CCCN(C(C)C)CC3)c2)nn1 [I-29]
26 | 16 nM | Cc1ncc(NC(=O)c2cc(C3CC3)n(C(C)(C)C)n2)cc1-n1cc(-c2cncc(N3CCN(C)CC3)c2)nn1 [I-41]
27 | 8 nM | Cc1ncc(NC(=O)c2cc(C)n(C(C)(C)C)n2)cc1-n1cc(-c2cncc(N3CCN(C(C)C)CC3)c2)nn1 [I-19]
28 | 22 nM | CCN1CCN(c2cncc(-c3cn(-c4cc(NC(=O)c5cc(C6CC6)n(C(C)(C)C)n5)cnc4C)nn3)c2)CC1 [I-43]
29 | 14 nM | COCCCN1CCN(c2cncc(-c3cn(-c4cc(NC(=O)c5cc(C)n(C(C)(C)C)n5)cnc4C)nn3)c2)CC1 [I-23]
30 | 6 nM | Cc1ncc(NC(=O)c2ccc(C(C)(C)C)s2)cc1-n1cc(-c2cncc(N3CCN(CC4CC4)CC3)c2)nn1 [I-10]
31 | 2 nM | Cc1ncc(NC(=O)c2ccc(C(C)(C)C)s2)cc1-n1cc(-c2cncc(N3CCN(C)CC3)c2)nn1 [I-14]
32 | 6 nM | Cc1ncc(NC(=O)c2ccc(C(C)(C)C)s2)cc1-n1cc(-c2cncc(N3CCN(C(C)(C)C)CC3)c2)nn1 [I-11]
33 | 3 nM | CCN1CCN(c2cncc(-c3cn(-c4cc(NC(=O)c5ccc(C(C)(C)C)s5)cnc4C)nn3)c2)CC1 [I-12]
34 | 8 nM | CCOCCN1CCN(c2cncc(-c3cn(-c4cc(NC(=O)c5ccc(C(C)(C)C)s5)cnc4C)nn3)c2)CC1 [I-8]
35 | 4 nM | Cc1ncc(NC(=O)c2ccc(C(C)(C)C)o2)cc1-n1cc(-c2cncc(N3CCN(C(C)(C)C)CC3)c2)nn1 [I-4]
36 | 16 nM | CCOCCN1CCN(c2cncc(-c3cn(-c4cc(NC(=O)c5cc(C)n(C(C)(C)C)n5)cnc4C)nn3)c2)CC1 [I-24]
37 | 15 nM | CCc1cc(C(=O)Nc2cnc(C)c(-n3cc(-c4cncc(N5CCN(C)CC5)c4)nn3)c2)nn1C(C)(C)C [I-30]
38 | 7 nM | CCCN1CCN(c2cncc(-c3cn(-c4cc(NC(=O)c5cc(CC)n(C(C)(C)C)n5)cnc4C)nn3)c2)CC1 [I-28]
39 | 2 nM | Cc1ncc(NC(=O)c2ccc(C(C)(C)C)o2)cc1-n1cc(-c2cncc(N3CCN(C)CC3)c2)nn1 [I-2]
40 | 9 nM | Cc1ncc(NC(=O)c2cc(C)n(C(C)(C)C)n2)cc1-n1cc(-c2cncc(N3CCCN(C)CC3)c2)nn1 [I-16]
41 | 3 nM | Cc1ncc(NC(=O)c2ccc(C(C)(C)C)o2)cc1-n1cc(-c2cncc(N3CCN(CC4CC4)CC3)c2)nn1 [I-5]
42 | 17 nM | Cc1ncc(NC(=O)c2cc(C(C)C)n(C(C)(C)C)n2)cc1-n1cc(-c2cncc(N3CCN(C)CC3)c2)nn1 [I-37]
43 | 11 nM | Cc1ncc(NC(=O)c2cc(C)n(C(C)(C)C)n2)cc1-n1cc(-c2cncc(N3CCN(CC4CC4)CC3)c2)nn1 [I-22]
44 | 9 nM | Cc1ncc(NC(=O)c2cc(C)n(C(C)C)n2)cc1-n1cc(-c2cncc(N3CCN(C)CC3)c2)nn1 [I-45]
45 | 6 nM | CCN1CCN(c2cncc(-c3cn(-c4cc(NC(=O)c5cc(C)n(C(C)C)n5)cnc4C)nn3)c2)CC1 [I-46]
46 | 6 nM | Cc1ncc(NC(=O)c2cc(C)n(C(C)C)n2)cc1-n1cc(-c2cncc(N3CCN(C(C)C)CC3)c2)nn1 [I-47]
47 | 3 nM | CCN1CCN(c2cncc(-c3cn(-c4cc(NC(=O)c5ccc(C(C)(C)C)o5)cnc4C)nn3)c2)CC1 [I-3]
48 | 7 nM | CCN1CCN(c2cncc(-c3cn(-c4cc(NC(=O)c5cc(C)n(C(C)(C)C)n5)cnc4C)nn3)c2)CC1 [I-20]
49 | 22 nM | Cc1ncc(NC(=O)c2cc(C3CC3)n(C(C)(C)C)n2)cc1-n1cc(-c2cncc(N3CCN(C(C)C)CC3)c2)nn1 [I-42]
50 | 26 nM | CCCN1CCN(c2cncc(-c3cn(-c4cc(NC(=O)c5cc(C(C)C)n(C(C)(C)C)n5)cnc4C)nn3)c2)CC1 [I-40]

From US8865703B2, “Pyridyltriazoles” (Boehringer Ingelheim International GmbH, priority 2010, dated 2014)
